Measured values from paper PMC8205039, “Synthesis and biological evaluation of 4-phenoxy-phenyl isoxazoles as novel acetyl-CoA carboxylase inhibitors” (Journal of Enzyme Inhibition and Medicinal Chemistry, 2021).

Tests used:
hACC1 = biological target: T1, hACC1 (Homo sapiens, UniProt Q13085); experiment: ACC inhibitory assay (ADP-Glo luminescent ADP detection); format: biochemical; conditions: for inhibition at 0.1 µM: hACC1, 0.1 μM, read-out: IRs (%) 0.1 μM; for inhibition at 0.1 µM / inhibition at 5 µM: mean of two independent experiments (Table 2); for inhibition at 5 µM: hACC1, 5 μM, read-out: IRs (%) 5 μM; for IC50: hACC1, mean ± SD
T1 construct: purchased BPS Biosciences 50200
Protocol: The hACC1 inhibitory activity of target compounds was evaluated using the ADP-Glo^TM kinase assay according to our previous report. In brief, 4.5 µL of working solution containing recombinant ACC1 (BPS Biosciences, 50200) and 0.5 µL of diluted compound solution were added to a 384-well Optiplate plate (Perkin Elmer, 6007290, PerkinElmer, Waltham, MA, USA), and incubated at room temperature for 15 min. Then, 5 µL of substrate mixture was added to the 384-well plate to start the reaction. After incubating for 60 min at room temperature, 10 µL of ADP-Glo reagents were added to the 384-well plate, and incubated for another 40 min to deplete the remaining ATP. Finally, 20 µL of kinase detection reagents were added to the plate and incubated for 40 min to convert ADP to ATP. The luminescent signal of ATP was determined using an Envision multifunction reader (Perkin Elmer, 2104–0010, PerkinElmer, Waltham, MA, USA). The IC50 values were calculated using GraphPad Prism 5 software (GraphPad Software, La Jolla, CA, USA).

A549 cells = experiment: MTT assay, A549; format: cell-based; conditions: Homo sapiens, 72 h, mean ± SD (n = 3)
Protocol: (§1) The cytotoxicity of target compounds was assessed by MTT assay. Briefly, cells were seeded in 96-well plates at a density of 2500–3000 per well and incubated for 24 h in a CO2 incubator. Then, the cells were treated with candidate compounds at seven different concentrations for 72 h. At the end of treatment, the MTT reagent (5 mg/mL) was added to determine the cell viability. After 4 h of incubation, the resulting medium was removed, and 100 µL of DMSO was added to dissolve the formed formazan. Finally, the absorbance at 550 nm was measured by a microplate reader (Varioskan LUX, […]), with the IC50 values calculated using GraphPad Prism 5 software (GraphPad Software, La Jolla, CA, USA).

HepG2 cells = experiment: MTT assay, HepG2; format: cell-based; conditions: Homo sapiens, 72 h, mean ± SD (n = 3)
Protocol: as §1

MDA-MB-231 cells = experiment: MTT assay, MDA-MB-231; format: cell-based; conditions: Homo sapiens, 72 h, mean ± SD (n = 3)
Protocol: as §1

[1] = Cell viability of non-cancerous HUVEC; format: cell-based, human; conditions: human, HUVEC cells (non-cancerous)
Protocol: (§2) To investigate the selectivity of the synthesised compounds towards cancer cells, the non-cancerous HUVEC cell line was selected for testing.
as §1

HUVEC = experiment: Cell viability of non-cancerous HUVEC; format: cell-based, human; conditions: 10 μM
Protocol: as §2, §1

CCCOc1ccc(Oc2ccc(-c3cc(C(C)NC(C)=O)on3)cc2)cc1 (stereo not drawn) [Compound 6e, N-(1-(3-(4-(4-Propoxyphenoxy)phenyl)isoxazol-5-yl)ethyl)acetamide]
inhibition at 0.1 µM (hACC1): 31.1% | inhibition at 5 µM (hACC1): > 60% | IC50 (hACC1): 0.438 ± 0.0163 µM | IC50 (A549 cells): 2.66 ± 0.47 µM | IC50 (HepG2 cells): 3.48 ± 0.74 µM | IC50 (MDA-MB-231 cells): 1.53 ± 0.38 µM | viability at 72 h, 10 µM [1]: 83.7 ± 4.4% | IRs towards HUVEC (HUVEC): less than 20% | melting point: 118.5 to 119.5 °C

CC(NC(=O)C1CC1)c1cc(-c2ccc(Oc3ccccc3)cc2)no1 (stereo not drawn) [Compound 6j, N-(1-(3-(4-Phenoxyphenyl)isoxazol-5-yl)ethyl)cyclopropanecarboxamide]
inhibition at 0.1 µM (hACC1): 20.8% | inhibition at 5 µM (hACC1): 58.4% | IC50 (A549 cells): 2.66 ± 0.47 µM | IC50 (HepG2 cells): 3.48 ± 0.74 µM | IC50 (MDA-MB-231 cells): 1.13 ± 0.38 µM | viability at 72 h, 10 µM [1]: 59.5 ± 0.95% | melting point: 168.5 to 169.5 °C

CCC(=O)NC(C)c1cc(-c2ccc(Oc3ccccc3)cc2)no1 (stereo not drawn) [Compound 6i, N-(1-(3-(4-Phenoxyphenyl)isoxazol-5-yl)ethyl)propionamide]
inhibition at 0.1 µM (hACC1): 18.5% | inhibition at 5 µM (hACC1): 51.8% | IC50 (A549 cells): 6.02 ± 0.63 µM | IC50 (HepG2 cells): 4.21 ± 0.53 µM | IC50 (MDA-MB-231 cells): 2.97 ± 1.49 µM | viability at 72 h, 10 µM [1]: 70.33 ± 0.25% | melting point: 129.5 to 130.5 °C

CC(NC(=O)c1ccccc1)c1cc(-c2ccc(Oc3ccccc3)cc2)no1 (stereo not drawn) [Compound 6k, N-(1-(3-(4-Phenoxyphenyl)isoxazol-5-yl)ethyl)benzamide]
inhibition at 0.1 µM (hACC1): 28.1% | inhibition at 5 µM (hACC1): > 60% | IC50 (hACC1): 0.626 ± 0.0416 µM | IC50 (A549 cells): 2.61 ± 0.34 µM | IC50 (HepG2 cells): 3.23 ± 0.89 µM | IC50 (MDA-MB-231 cells): 0.57 ± 0.18 µM | viability at 72 h, 10 µM [1]: 80 ± 2.47% | IRs towards HUVEC (HUVEC): less than 20%

CCNC(=O)NC(C)c1cc(-c2ccc(Oc3ccccc3)cc2)no1 (stereo not drawn) [Compound 6n, 1-Ethyl-3-(1-(3-(4-phenoxyphenyl)isoxazol-5-yl)ethyl)urea]
inhibition at 0.1 µM (hACC1): 13.4% | inhibition at 5 µM (hACC1): 44.7% | IC50 (A549 cells): 5.78 ± 0.86 µM | IC50 (HepG2 cells): 9.04 ± 1.43 µM | IC50 (MDA-MB-231 cells): 8.63 ± 1.14 µM | viability at 72 h, 10 µM [1]: 83.2 ± 2.33% | melting point: 158.5 to 159.5 °C

COc1cccc2c1C(=O)c1c(O)c3c(c(O)c1C2=O)C[C@@](O)(C(=O)CO)C[C@@H]3O[C@H]1C[C@H](N)[C@H](O)[C@H](C)O1 [DOX, doxorubicin, reference compound]
IC50 (A549 cells): 0.52 ± 0.07 µM | IC50 (HepG2 cells): 0.67 ± 0.13 µM | IC50 (MDA-MB-231 cells): 0.42 ± 0.09 µM | viability at 72 h, 10 µM [1]: 18.9 ± 4.02%

CC(=O)NC(C)c1cc(-c2ccc(Oc3ccc(O)cc3)cc2)no1 (stereo not drawn) [Compound 6b, N-(1-(3-(4-(4-Hydroxyphenoxy)phenyl)isoxazol-5-yl)ethyl)acetamide]
inhibition at 0.1 µM (hACC1): 8.76% | inhibition at 5 µM (hACC1): 26.8% | IC50 (A549 cells): > 10 µM | IC50 (HepG2 cells): > 10 µM | IC50 (MDA-MB-231 cells): > 10 µM | viability at 72 h, 10 µM [1]: 88.1 ± 3.83% | melting point: 103 to 105 °C

CC(C)NC(=O)NC(C)c1cc(-c2ccc(Oc3ccccc3)cc2)no1 (stereo not drawn) [Compound 6o, 1-Isopropyl-3-(1-(3-(4-phenoxyphenyl)isoxazol-5-yl)ethyl)urea]
inhibition at 0.1 µM (hACC1): 17.9% | inhibition at 5 µM (hACC1): 49.8% | IC50 (A549 cells): 3.12 ± 0.19 µM | IC50 (HepG2 cells): 2.31 ± 0.44 µM | IC50 (MDA-MB-231 cells): 1.9 ± 0.52 µM | viability at 72 h, 10 µM [1]: 77.7 ± 5.67% | melting point: 197.5 to 198.5 °C

COc1ccc(Oc2ccc(-c3cc(C(C)NC(C)=O)on3)cc2)cc1 (stereo not drawn) [Compound 6c, N-(1-(3-(4-(4-Methoxyphenoxy)phenyl)isoxazol-5-yl)ethyl)acetamide]
inhibition at 0.1 µM (hACC1): 9.89% | inhibition at 5 µM (hACC1): 37.3% | IC50 (A549 cells): > 10 µM | IC50 (HepG2 cells): > 10 µM | IC50 (MDA-MB-231 cells): > 10 µM | viability at 72 h, 10 µM [1]: 82.4 ± 4.85% | melting point: 127.5 to 128.5 °C

CC(=O)NC(C)c1cc(-c2ccc(Oc3ccccc3)cc2)no1 (stereo not drawn) [Compound 6h, N-(1-(3-(4-Phenoxyphenyl)isoxazol-5-yl)ethyl)acetamide]
inhibition at 0.1 µM (hACC1): 8.78% | inhibition at 5 µM (hACC1): 36.4% | IC50 (A549 cells): > 10 µM | IC50 (HepG2 cells): > 10 µM | IC50 (MDA-MB-231 cells): > 10 µM | viability at 72 h, 10 µM [1]: 91.5 ± 2.58% | melting point: 118.5 to 119.5 °C

CCOc1ccc(Oc2ccc(-c3cc(C(C)NC(C)=O)on3)cc2)cc1 (stereo not drawn) [Compound 6d, N-(1-(3-(4-(4-Ethoxyphenoxy)phenyl)isoxazol-5-yl)ethyl)acetamide]
inhibition at 0.1 µM (hACC1): 12.7% | inhibition at 5 µM (hACC1): 45.5% | IC50 (A549 cells): > 10 µM | IC50 (HepG2 cells): > 10 µM | IC50 (MDA-MB-231 cells): > 10 µM | viability at 72 h, 10 µM [1]: 89.1 ± 6.09% | melting point: 106.5 to 107.5 °C

O=C(c1c2ccccc2cc2ccccc12)N1CCC(N2CCC[C@@H](C(=O)N3CCOCC3)C2)CC1 [CP-640186, reference compound]
hACC1 IRs (%) (hACC1; at 5 μM, HTVS candidates (Table 1)): 86.83% | inhibition at 0.1 µM (hACC1): 48.9% | inhibition at 5 µM (hACC1): 87.8% | IC50 (hACC1): 0.109 ± 0.0062 µM

CC(NC(=O)Nc1ccccc1)c1cc(-c2ccc(Oc3ccccc3)cc2)no1 (stereo not drawn) [Compound 6p, 1-(1-(3-(4-Phenoxyphenyl)isoxazol-5-yl)ethyl)-3-phenylurea]
inhibition at 0.1 µM (hACC1): 21.5% | inhibition at 5 µM (hACC1): > 60% | IC50 (hACC1): 1.05 ± 0.18 µM | IC50 (A549 cells): 5.3 ± 0.46 µM | IC50 (HepG2 cells): 1.8 ± 0.62 µM | IC50 (MDA-MB-231 cells): 0.84 ± 0.08 µM | viability at 72 h, 10 µM [1]: 85.6 ± 7.35% | IRs towards HUVEC (HUVEC): less than 20% | melting point: 195.5 to 196.5 °C

CC(=O)NC(C)c1cc(-c2ccc(Oc3ccc(OC(C)C)cc3)cc2)no1 (stereo not drawn) [Compound 6f, N-(1-(3-(4-(4-Isopropoxyphenoxy)phenyl)isoxazol-5-yl)ethyl)acetamide]
inhibition at 0.1 µM (hACC1): 16.7% | inhibition at 5 µM (hACC1): 52.8% | IC50 (A549 cells): > 10 µM | IC50 (HepG2 cells): > 10 µM | IC50 (MDA-MB-231 cells): 6.77 ± 0.74 µM | viability at 72 h, 10 µM [1]: 35 ± 1.66% | melting point: 124 to 126 °C

CCOC(=O)NC(C)c1cc(-c2ccc(Oc3ccccc3)cc2)no1 (stereo not drawn) [Compound 6m, Ethyl (1-(3-(4-phenoxyphenyl)isoxazol-5-yl)ethyl)carbamate]
inhibition at 0.1 µM (hACC1): 3.57% | inhibition at 5 µM (hACC1): 16.8% | ACC inhibitory activity (in words) (hACC1; screening at 5 µM and 0.1 µM): hardly observed | IC50 (A549 cells): > 10 µM | IC50 (HepG2 cells): > 10 µM | IC50 (MDA-MB-231 cells): > 10 µM | viability at 72 h, 10 µM [1]: 79.1 ± 4.76% | melting point: 106.5 to 107.5 °C
